For eight molecules, T/C results are on record in PubChem BioAssay AID226 (DTP/NCI, 2004).

In this experiment the test system is B6C3F1 mice, intracerebral ependymoblastoma, median survival T/C. Briefly: NCI In Vivo Anticancer Drug Screen. Data for tumor model Ependymoblastoma (intracerebral) in B6C3F1 mice. Particulars: endpoint: median survival time, higher = longer survival. Here is the method: The antitumor activity of compounds was measured in mice bearing transplantable tumors. Survival or tumor size were measured and the results are expressed as the measurement made in the treated group (T) divided by the measurement made in the vehicle treated control group (C). The tumor model used in this assay is Ependymoblastoma (intracerebral) in B6C3F1 mice

The mark [1] stands for this setting: dose: 64.0 mg/kg/injection, schedule: Q01DX005 (ip), vehicle: saline with Tween-80.
Setting [2] is: dose: 50.0 mg/kg/injection, schedule: Q01DX005 (ip), vehicle: Klucel (hydroxypropylcellulose) (HPC).
Where [3] appears, read: dose: 100.0 mg/kg/injection, schedule: Q01DX005 (ip), vehicle: Klucel (hydroxypropylcellulose) (HPC).
Where [4] appears, read: dose: 32.0 mg/kg/injection, schedule: Q01DX005 (ip), vehicle: saline.
Where [5] appears, read: dose: 64.0 mg/kg/injection, schedule: Q01DX005 (ip), vehicle: saline.
Setting [6] is: dose: 128.0 mg/kg/injection, schedule: Q01DX005 (ip), vehicle: saline.
[7] abbreviates: dose: 256.0 mg/kg/injection, schedule: Q01DX005 (ip), vehicle: saline.

“And” between values parts separate entries of the source, which are not always exact repeats. Equal entries are not always repeated. Inconclusive results and toxic doses are left out.

`COc1cccc2c1C(=O)c1c(O)c3c(c(O)c1C2=O)C[C@@](O)(C(=O)CO)C[C@@H]3OC1CC(N)C(O)C(C)O1` (stereo partly drawn): the T/C was 104 % of control (dose: 0.06 mg/kg/injection, schedule: Q03HX008 (ip), vehicle: saline); 96 % of control (dose: 0.12 mg/kg/injection, schedule: Q01DX005 (ip), vehicle: water); 100 % of control and 113 % of control (dose: 0.12 mg/kg/injection, schedule: Q03HX008 (ip), vehicle: saline); 94 % of control and 113 % of control and 114 % of control (dose: 0.25 mg/kg/injection, schedule: Q01DX005 (ip), vehicle: saline); 102 % of control (dose: 0.25 mg/kg/injection, schedule: Q01DX005 (ip), vehicle: water); 106 % of control and 120 % of control (dose: 0.25 mg/kg/injection, schedule: Q03HX008 (ip), vehicle: saline). Besides, the T/C is, setting by setting: (dose: 0.5 mg/kg/injection, schedule: Q01DX005 (ip), vehicle: saline) 103 % of control and 105 % of control and 114 % of control; (dose: 0.5 mg/kg/injection, schedule: Q01DX005 (ip), vehicle: suspension in saline) 103 % of control; (dose: 0.5 mg/kg/injection, schedule: Q01DX005 (ip), vehicle: water) 92 % of control and 113 % of control; (dose: 0.5 mg/kg/injection, schedule: Q03HX008 (ip), vehicle: saline) 114 % of control; (dose: 1.0 mg/kg/injection, schedule: Q01DX005 (ip), vehicle: saline) 109 % of control and 110 % of control and 116 % of control; (dose: 1.0 mg/kg/injection, schedule: Q01DX005 (ip), vehicle: suspension in saline) 108 % of control. In addition, the T/C (dose: 1.0 mg/kg/injection, schedule: Q01DX005 (ip), vehicle: water) was 102 % of control and 116 % of control; the T/C (dose: 2.0 mg/kg/injection, schedule: Q01DX005 (ip), vehicle: saline) was 116 % of control and 118 % of control; the T/C (dose: 2.0 mg/kg/injection, schedule: Q01DX005 (ip), vehicle: suspension in saline) is 121 % of control; the T/C (dose: 2.0 mg/kg/injection, schedule: Q01DX005 (ip), vehicle: water) was 107 % of control and 113 % of control; the T/C (dose: 4.0 mg/kg/injection, schedule: Q01DX001 (oral), vehicle: saline) was 100 % of control; the T/C (dose: 4.0 mg/kg/injection, schedule: Q01DX005 (ip), vehicle: saline) was 100 % of control and 118 % of control and 86 % of control. Besides, the T/C is 96 % of control (dose: 8.0 mg/kg/injection, schedule: Q01DX001 (oral), vehicle: saline); 103 % of control (dose: 16.0 mg/kg/injection, schedule: Q01DX001 (oral), vehicle: saline); 89 % of control (dose: 32.0 mg/kg/injection, schedule: Q01DX001 (oral), vehicle: saline).
`CCCCC(=O)OCC1OC(n2cnc3c(=S)nc[nH]c32)C(OC(=O)CCCC)C1OC(=O)CCCC` (stereo not drawn): the T/C (dose: 25.0 mg/kg/injection, schedule: Q01DX005 (ip), vehicle: saline with Tween-80) was 116 % of control; the T/C (dose: 50.0 mg/kg/injection, schedule: Q01DX005 (ip), vehicle: saline with Tween-80) was 99 % of control; the T/C (dose: 100.0 mg/kg/injection, schedule: Q01DX005 (ip), vehicle: saline with Tween-80) was 103 % of control.
Turning to `Nc1ncnc2nc[nH]c12`, the T/C by setting is: (dose: 4.0 mg/kg/injection, schedule: Q01DX005 (ip), vehicle: saline with Tween-80) 106 % of control and 113 % of control; (dose: 8.0 mg/kg/injection, schedule: Q01DX005 (ip), vehicle: saline with Tween-80) 100 % of control and 114 % of control; (dose: 16.0 mg/kg/injection, schedule: Q01DX005 (ip), vehicle: saline with Tween-80) 107 % of control and 118 % of control; (dose: 32.0 mg/kg/injection, schedule: Q01DX005 (ip), vehicle: saline with Tween-80) 101 % of control and 102 % of control; (dose: 64.0 mg/kg/injection, schedule: Q01DX005 (ip), vehicle: Klucel (hydroxypropylcellulose) (HPC)) 108 % of control; under setting [1], 100 % of control and 117 % of control. Besides, the T/C was 107 % of control (dose: 128.0 mg/kg/injection, schedule: Q01DX005 (ip), vehicle: Klucel (hydroxypropylcellulose) (HPC)) and 96 % of control (dose: 256.0 mg/kg/injection, schedule: Q01DX005 (ip), vehicle: Klucel (hydroxypropylcellulose) (HPC)).
With `O=c1ccc2ccccc2o1`, the T/C (dose: 12.5 mg/kg/injection, schedule: Q01DX005 (ip), vehicle: Klucel (hydroxypropylcellulose) (HPC)) was 100 % of control; the T/C (dose: 25.0 mg/kg/injection, schedule: Q01DX005 (ip), vehicle: Klucel (hydroxypropylcellulose) (HPC)) was 92 % of control; the T/C (dose: 45.0 mg/kg/injection, schedule: Q01DX005 (ip), vehicle: saline with Tween-80) is 103 % of control; the T/C under setting [2] was 108 % of control; the T/C (dose: 90.0 mg/kg/injection, schedule: Q01DX005 (ip), vehicle: saline with Tween-80) is 98 % of control; the T/C under setting [3] was 104 % of control.
`CC(=O)Nc1ccc(/C=N/NC(N)=S)cc1`: the T/C is 93 % of control under setting [2]; 91 % of control under setting [3]; 90 % of control (dose: 200.0 mg/kg/injection, schedule: Q01DX005 (ip), vehicle: Klucel (hydroxypropylcellulose) (HPC)); 91 % of control (dose: 400.0 mg/kg/injection, schedule: Q01DX005 (ip), vehicle: Klucel (hydroxypropylcellulose) (HPC)); 112 % of control (dose: 800.0 mg/kg/injection, schedule: Q01DX005 (ip), vehicle: Klucel (hydroxypropylcellulose) (HPC)).
Take `CN(CCO)/N=N/c1nc[nH]c1C(N)=O`: the T/C was 116 % of control under setting [4]; 109 % of control and 112 % of control under setting [5]; 114 % of control under setting [6]; 124 % of control under setting [7].
Take `CN(C)/N=N/c1[nH]ncc1C(N)=O`: the T/C reads like this: under setting [4], 150 % of control; under setting [5], 176 % of control; (dose: 128.0 mg/kg/injection, schedule: Q01DX005 (ip), vehicle: saline with Tween-80) 151 % of control; under setting [6], 155 % of control; under setting [7], 96 % of control.
For `Nc1nncs1`, the T/C reads like this: (dose: 6.25 mg/kg/injection, schedule: Q01DX009 (ip), vehicle: saline) 91 % of control; (dose: 12.5 mg/kg/injection, schedule: Q01DX009 (ip), vehicle: saline) 96 % of control; (dose: 25.0 mg/kg/injection, schedule: Q01DX009 (ip), vehicle: saline) 102 % of control; (dose: 50.0 mg/kg/injection, schedule: Q01DX009 (ip), vehicle: saline) 115 % of control; under setting [1], 110 % of control; (dose: 100.0 mg/kg/injection, schedule: Q01DX009 (ip), vehicle: saline) 107 % of control.
